Patent US20240173324A1, “COMBINATORY THERAPY FOR PREVENTING, INHIBITING, TREATING, OR REDUCING ANEURYSMS” (The Regents of the University of California, priority 2021, published 2024)
“And” between values parts separate entries of the source, which are not always exact repeats. Equal values may be shown once.

Legend:
[1] = tested on: Ang II infused apoE null mice; assay: Incidence of AAA in Ang II infused apoE null mice (ultrasound and post-mortem inspection); type: in vivo
Text: The use of animals and experimental procedures were approved by the Institutional Animal Care and Usage Committee (IACUC) at the University of California Los Angeles (UCLA). Breeders of apoE null mice were purchased from Jackson Labs (Bar Harbor, ME, Strain B6.129P2-ApoEtmlUnc/J), and bred in house. Animals were kept in ventilated cages, with free access to water and standard chow under the standard care of Division of Laboratory Animal Medicine (DLAM) staff. Male apoE null mice of 6-8 months old were used for experimentation.
The animals receiving Ang II infusion were anesthetized in an isoflurane chamber with 5% isoflurane, and then moved to a nose cone with sustained supply of 1.5-2% isoflurane to maintain the anesthetic state. The back area between the shoulder blades was cleaned of hair and disinfected. Then a small incision was made at the cleaned site; the osmotic minipump (Alzet, model 2004) containing Ang II (1000 ng/kg/min, Sigma-Millipore, St. Louis, MO, USA) was subcutaneously implanted into the mice. The surgical wounds were closed with surgical staples, and then animals were allowed to recover in a heated cage.
At the end of the study period of 4 weeks, animals were euthanized with CO2. The aortas were rapidly removed from the body, rinsed with ice cold Krebs/HEPES buffer, and cleaned of connective tissue and fat. The incidence of AAA was determined by ultrasound assessment of abdominal aortic expansion as described above, and by direct inspection of the abdominal aortas post-mortem.

[2] = tested on: Ang II infused apoE null mice; assay: Verhoeff-Van Gieson (VVG) staining, medial elastin degradation; type: in vivo; details: FA 15 mg/kg/day oral
Experimental: To assess medial elastin degradation, VVG staining was performed using aortic sections from all experimental groups.
Paraffin embedded aortic sections were deparaffinized by sequential washes in xylene (2x), descending ethanol from 100%, 90%, 75% to 50%, and distilled water. Sections were stained in Verhoeff s solution for 70 min, followed by differentiation in 2% ferric chloride for 90 seconds. Sections were incubated with 5% sodium thiosulfate for 60 seconds, followed by counterstaining with Van Gieson's solution. Sections were then subjected to dehydration with 95% and 100% alcohol, and finally washed in xylene. After drying, sections were mounted with Permount mounting media (SP15-100, Thermo-Fisher Scientific, Pittsburgh, PA, USA), and images captured by a Nikon TE2000-U fluorescent microscope.

[3] = tested on: Ang II infused apoE null mice; assay: Ultrasound detection of abdominal aortic size (enlargement of abdominal aortas); type: in vivo; details: FA 15 mg/kg/day oral; weekly ultrasound over 4 weeks; vs. apoE+Ang II
Experimental: The back area between the shoulder blades was cleaned of hair and disinfected. Then a small incision was made at the cleaned site; the osmotic minipump (Alzet, model 2004) containing Ang II (1000 ng/kg/min, Sigma-Millipore, St. Louis, MO, USA) was subcutaneously implanted into the mice. The surgical wounds were closed with surgical staples, and then animals were allowed to recover in a heated cage. […] The enlargement of abdominal aortas in various experimental groups was monitored using ultrasound. Animals were anesthetized with isoflurane and placed on a temperature-controlled table. Isoflurane levels were adjusted throughout the experiment to maintain heart rate between 400 and 500 bpm while keeping the animal sufficiently anesthetized. Hair was removed from the abdomen using a hair removal cream, and preheated ultrasound transmission gel was applied onto the abdomen area. An ultrasound probe was placed on the gel to visualize aorta transversely (Vevo 2100, MS400, 30 MHz. FUJIFILM VisualSonics, Inc., Toronto, Ontario, Canada). The aorta was identified using Doppler measurement for the presence of pulsatile flow.

[4] = tested on: Ang II-infused apoE null mice; details: oral FA administration, previously observed; cited from earlier work
[5] = tested on: Ang II infused hph-1 mice; details: oral FA administration; cited from earlier work
aortic H4B = assay: HPLC determination of aortic H4B bioavailability; type: in vivo, mice; details: FA 15 mg/kg/day oral
Experimental: After centrifugation, 10 μl of the supernatant was injected into a HPLC system equipped with a fluorescent detector (Schimadzu America Inc, Carlsbad, CA, USA). Excitation and emission wavelengths of 350 nm and 450 nm were used to measure H4B levels.

[6] = tested on: Ang II infused apoE null mice; assay: H&E staining of aortic sections, vascular remodeling; type: in vivo; details: FA 15 mg/kg/day oral
Text: To examine the extent of the vascular remodeling that occurred during AAA in the presence of various treatments, freshly isolated aortas were embedded in paraffin, sectioned and stained with hematoxylin-eosin (H&E).
At the end of the study period of 4 weeks, animals were euthanized with CO2. The aortas were rapidly removed from the body, rinsed with ice cold Krebs/HEPES buffer, and cleaned of connective tissue and fat. […] For histological analyses, small sections (5 mm) of the abdominal aortas of the suprarenal region were removed and fixed in 4% paraformaldehyde overnight, followed by incubation for 24 hours in 10% sucrose, and then embedded in paraffin. In the case of AAA, a center section of the AAA was used for these analyses. Sections were sliced at 5μm at UCLA Pathology Core, and subjected to hematoxylin-eosin (H&E) staining following standard protocol.

[7] = tested on: Fbnic1^C1039G/+ Marfan Syndrome (MFS) mice; details: FA diet; cited from earlier work
[8] = tested on: total superoxide production in aortas; assay: Electron spin resonance determination of total aortic superoxide production; type: in vivo, mice; details: FA 15 mg/kg/day oral; ESR
Text: Therefore, changes in aortic total superoxide production and eNOS uncoupling activity from all treatment groups is examined herein. Freshly prepared aortic lysates were subjected to electron spin resonance (ESR) determination of superoxide production with and without L-NAME, an inhibitor of NOS. If eNOS is functional and coupled, its inhibition by L-NAME will increase the measured superoxide, as eNOS is producing NO to scavenge superoxide. However, if eNOS is dysfunctional, uncoupled and producing superoxide, its inhibition with L-NAME will lead to a decrease in measured superoxide.
Aortic superoxide production was determined by electron spin resonance (ESR). In brief, freshly isolated aortas were homogenized in lysis buffer containing 1:100 protease inhibitor cocktail (MilliporeSigma, P8340), centrifuged at 12,000 rpm for 15 min, and protein supernatant collected. After determination of protein concentration using a protein assay kit (Bio-Rad), five μg of the protein was loaded into ice-cold and nitrogen bubbled modified Krebs/HEPES buffer (KHB, in mmol/L: NaCl 99; KCl 4.7; MgSO41.2; KH2PO4 1.0; CaCl2 1.9; NaHCO3 25; glucose 11.1, NaHEPES 20) containing diethyldithiocarbamic acid (5 mmol/L), deferoxamine (25 mmol/L), and the superoxide specific spin trap methoxycarbonyl-2,2,5,5-tetramethylpyrrolidine (CMH, 500 μmol/L, Axxora, San Diego, CA, USA). […]

AAA formation = details: both low and high dose of Nifedipine alone; earlier study; cited from earlier work

Structure (SMILES)	incidence of AAA ([1]; FA 15 mg/kg/day oral in chow, 4 weeks Ang II infusion, Ang II alone 85.71%) [%]	numbers of animals developed AAA and animals examined ([1]; FA 15 mg/kg/day, b210 developed out of examined, b50 examined/developed)	elastin degradation featured by flattening and breakdown [2]	enlargement of abdominal aortas [3]	aneurysm formation [4]	AAA formation [5]	Ang II induced H4B deficiency (aortic H4B)	vascular remodeling featured by elastic degradation and adventitial hypertrophy [6]	formation of TAA and AAA [7]	total superoxide production in aortas [8]	AAA formation (AAA formation)
Nc1nc2ncc(CNc3ccc(C(=O)N[C@@H](CCC(=O)O)C(=O)O)cc3)nc2c(=O)[nH]1 [FA, folic acid]	18.75	6 out of 32 and 32/6	significantly attenuated	significantly attenuated	abrogated aneurysm formation	markedly attenuated	significantly abrogated	markedly attenuated	attenuated formation of TAA and AAA	markedly abrogated	–
COC(=O)C1=C(C)NC(C)=C(C(=O)OC)C1c1ccccc1[N+](=O)[O-] [Nifedipine]	–	–	–	–	–	–	–	–	–	–	able to attenuate AAA formation
